In patent US20210057047A1, “IN-SILICO METHOD FOR DESIGNING A (D)-POLYPEPTIDE LIGAND” (THE GOVERNING COUNCIL OF THE UNIVERSITY OF TORONTO, priority 2018, published 2021):
Square brackets hold non-standard residues; d marks the D form. Peptide text beside a SMILES is read from it.

Columns and labels:
in vitro = in vitro ADME; settings: isolated enzyme proteinase k, pH 7.4
Protocol: (§1) Stocks of 20 μM peptide in 200 μL total volume (10 mM Tris-base, 10 mM NaCl, pH 7.4) were supplemented with 5 μM CaCl2) and 30 uL removed for the untreated T0 sample. Proteinase K (ProtK, Bioshop) was then added to a final concentration of 100 μg/mL. Samples were incubated at 37° C. and 30 μL removed after each time point and protease activity blocked by the addition of 10 mM PMSF (200 mM stock dissolved in isopropanol). Protease inactivated samples were frozen at −20° C. until further use. Digestions were repeated three times. Frozen samples were supplemented with 8 μL sample loading buffer (4× NuPAGE, ThermoFisher Scientific), boiled ([…]) for 10 minutes, and centrifuged (12 000 rpm, 10 min) prior to loading the gel (12% NuPAGE Bis-Tris (ThermoFisher Scientific) with MES running buffer). Gels were run at 200 V for […] and stained using Coomassie Brilliant Blue dye. Densitometry of bands was determined using ImageJ software (40) with back ground subtraction. All samples were normalized to their respective untreated sample (T0).

Proteinase K (ProtK) = biological target: T1, Proteinase K (ProtK) (Parengyodontium album, UniProt P06873); experiment: in vitro; type: in vitro ADME
T1 construct: purchased Bioshop
Protocol: as §1

GLP2R = biological target: T2, GLP2R (Homo sapiens, UniProt O95838); experiment: CRE-luciferase reporter assay in HEK293 cells stably expressing GLP2R; type: cell-based
T2 construct: expressed in transfected cells; host or cells: HEK293
T2 sequence (O95838 1-553): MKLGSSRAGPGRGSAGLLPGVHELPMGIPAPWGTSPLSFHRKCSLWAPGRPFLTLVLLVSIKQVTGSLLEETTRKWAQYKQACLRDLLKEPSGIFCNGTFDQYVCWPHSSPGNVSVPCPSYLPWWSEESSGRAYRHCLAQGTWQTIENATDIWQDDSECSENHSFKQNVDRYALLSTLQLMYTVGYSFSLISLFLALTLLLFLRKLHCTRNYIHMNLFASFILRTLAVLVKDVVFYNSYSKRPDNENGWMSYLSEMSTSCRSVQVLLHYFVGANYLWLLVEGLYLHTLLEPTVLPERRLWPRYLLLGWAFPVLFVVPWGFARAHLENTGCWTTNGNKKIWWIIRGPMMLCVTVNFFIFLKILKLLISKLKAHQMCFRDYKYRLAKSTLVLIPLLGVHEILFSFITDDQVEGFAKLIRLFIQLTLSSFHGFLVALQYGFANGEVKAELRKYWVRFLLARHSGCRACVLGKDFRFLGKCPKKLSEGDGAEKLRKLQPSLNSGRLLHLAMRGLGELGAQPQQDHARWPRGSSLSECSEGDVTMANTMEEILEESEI
Protocol: This activates protein kinase A (PKA) to phosphorylate and activate cAMP response element-binding protein (CREB). […] All of the (L)-GLP-2 is degraded in about 1 hr, while more than 90% of the (D)-analog is still detectable at 6 hours.
FIG. 14 is a series of charts and experiments showing the activity and protease degradation of (L)- and (D)-GLP2 polypeptides. (A) HEK293 cells stably expressing GLP2R and CRE-luciferase were stimulated with different concentrations of (L)- and (D)-GLP2 peptides. Luciferase activity was measured. The experiments were performed in triplicate. (B) Sample gel images of (L) and (D)-GLP-2 peptides treated with Proteinase K (ProtK) over 5 hours. Gels were stained with Coomassie Brilliant Blue dye and band densitometry calculated using ImageJ (40) with background subtraction. (C) Quantification of remaining peptide post ProtK treatment in 60 min intervals. Intensities of peptide bands were normalized to the intensity of the untreated peptide (T0) and converted to a percentage relative to T0. […] Error bars are reporting standard error. Data represent the average of 3 independent experiments.

RLN receptor (RXFP1) = biological target: T3, RLN receptor (RXFP1) (Homo sapiens, UniProt Q9HBX9); experiment: CRE-luciferase reporter assay in HEK293 cells stably expressing RXFP1; type: cell-based
T3 construct: expressed in transfected cells; host or cells: HEK293
T3 sequence (Q9HBX9 1-757): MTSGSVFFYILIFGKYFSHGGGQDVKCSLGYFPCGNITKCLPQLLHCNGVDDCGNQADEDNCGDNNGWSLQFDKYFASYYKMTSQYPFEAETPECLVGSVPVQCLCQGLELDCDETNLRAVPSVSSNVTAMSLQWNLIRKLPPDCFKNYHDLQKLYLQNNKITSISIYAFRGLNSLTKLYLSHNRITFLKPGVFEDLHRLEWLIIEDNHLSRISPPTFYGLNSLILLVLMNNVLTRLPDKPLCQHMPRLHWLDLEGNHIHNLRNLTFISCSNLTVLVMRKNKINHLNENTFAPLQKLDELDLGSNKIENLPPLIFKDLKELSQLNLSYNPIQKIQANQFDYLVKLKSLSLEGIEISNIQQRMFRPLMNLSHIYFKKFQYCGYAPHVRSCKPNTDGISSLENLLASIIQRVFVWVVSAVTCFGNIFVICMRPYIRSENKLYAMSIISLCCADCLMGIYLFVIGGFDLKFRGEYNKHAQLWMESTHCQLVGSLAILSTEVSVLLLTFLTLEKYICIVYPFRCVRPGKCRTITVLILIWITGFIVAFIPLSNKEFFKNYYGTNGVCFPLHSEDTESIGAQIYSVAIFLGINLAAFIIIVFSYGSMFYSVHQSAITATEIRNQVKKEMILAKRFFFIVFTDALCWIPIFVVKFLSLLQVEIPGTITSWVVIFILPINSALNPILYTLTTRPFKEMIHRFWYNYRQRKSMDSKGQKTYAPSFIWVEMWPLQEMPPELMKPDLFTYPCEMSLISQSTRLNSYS
Protocol: This activates protein kinase A (PKA) to phosphorylate and activate cAMP response element-binding protein (CREB). […] All of the (L)-RLN was degraded in about 1 hr, while about 90% of the (D)-analog was still detectable at 6 hours.
FIG. 15 is a series of charts and experiments showing the activity and protease degradation of (D)-RLN_1 (non-mutated) and (D)-RLN_2 (mutated) polypeptides. (A) HEK293 cells stably expressing RXFP1 and CRE-luciferase were stimulated with different concentrations of (D)-RLN_1 and (D)-RLN_2 peptides. Luciferase activity was measured. The experiments were performed in triplicate. (B) Sample gel images of (L) and (D)-RLN peptides treated with Proteinase K (ProtK) over 5 hours. Gels were stained with Coomassie Brilliant Blue dye and band densitometry calculated using ImageJ (40) with background subtraction. (C) Quantification of remaining peptide post ProtK treatment in 60 min intervals. Intensities of peptide bands were normalized to the intensity of the untreated peptide (T0) and converted to a percentage relative to T0. […] Error bars are reporting standard error. Data represent the average of 3 independent experiments.

T1 sequence (P06873 106-384): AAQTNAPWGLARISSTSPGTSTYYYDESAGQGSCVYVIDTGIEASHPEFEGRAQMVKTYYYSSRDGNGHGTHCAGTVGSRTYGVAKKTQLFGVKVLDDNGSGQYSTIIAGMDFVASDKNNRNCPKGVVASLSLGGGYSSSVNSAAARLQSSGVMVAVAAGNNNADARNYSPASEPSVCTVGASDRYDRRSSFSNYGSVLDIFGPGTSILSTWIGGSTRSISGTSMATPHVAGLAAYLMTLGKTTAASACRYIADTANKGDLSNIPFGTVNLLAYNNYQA

remaining at 6 h, 20 µM (in vitro) [%] | SMILES | degradation by ProtK (in words) (Proteinase K (ProtK)) | activation of GLP2R, potency and efficacy (in words) (GLP2R) | remaining at 6 h, 20 µM (Proteinase K (ProtK); isolated enzyme proteinase k, pH 7.4, after 6 hours exposure to ProtK, relative to T0, read-out: peptide still detectable) [%] | activation of RLN receptor, potency and efficacy (in words) (RLN receptor (RXFP1))
> 90 | CC[C@@H](C)[C@@H](NC(=O)[C@@H](C)NC(=O)[C@@H](C)NC(=O)[C@H](NC(=O)[C@@H](C)NC(=O)[C@@H](Cc1ccccc1)NC(=O)[C@@H](Cc1c[nH]c2ccccc12)NC(=O)[C@@H](Cc1ccccc1)NC(=O)CNC(=O)[C@H](NC(=O)[C@@H](CCCNC(=N)N)NC(=O)[C@@H](CC(=O)O)NC(=O)[C@H](NC(=O)[C@@H](CCCCN)NC(=O)[C@H](NC(=O)[C@H](NC(=O)[C@H](N)CC(=O)O)[C@H](C)O)[C@H](C)CC)[C@H](C)O)[C@H](C)CC)C(C)C)C(=O)N[C@H](CC(C)C)C(=O)N[C@@H](C(=O)N[C@H](CC(C)C)C(=O)N[C@H](CC(C)C)C(=O)N[C@H](CCCCN)C(=O)N[C@H](CCSC)C(=O)N[C@H](CCSC)C(=O)N[C@H](CCC(=O)O)C(=O)N[C@H](CCC(=O)O)C(=O)N[C@H](Cc1ccccc1)C(=O)N[C@@H](C(=O)NCC(=O)N[C@H](CC(=O)O)C(=O)N[C@H](C)C(=O)N[C@H](Cc1c[nH]cn1)C(=O)O)C(C)C)C(C)C [(D)-GLP2] (H-[dD][dT][dI][dK][dT][dD][dR][dI]G[dF][dW][dF][dA][dV][dA][dA][dI][dL][dV][dL][dL][dK][dM][dM][dE][dE][dF][dV]G[dD][dA][dH]-OH; N-terminus and C-terminus assumed) | persists after 5 hours | potency and efficacy comparable to (L)-GLP-2 |  | 
 | CC[C@@H](C)[C@@H](NC(=O)[C@@H](CC(C)C)NC(=O)[C@@H](CC(C)C)NC(=O)[C@@H](CCC(=O)O)NC(=O)[C@@H](CCCCN)NC(=O)[C@@H](CO)NC(=O)[C@H](NC(=O)[C@@H](Cc1c[nH]c2ccccc12)NC(=O)[C@H](N)CO)[C@H](C)O)C(=O)N[C@H](CCC(=O)O)C(=O)N[C@@H](C(=O)N[C@@H](C(=O)N[C@H](CC(N)=O)C(=O)N[C@H](CC(=O)O)C(=O)N[C@H](CC(C)C)C(=O)N[C@H](CCC(N)=O)C(=O)N[C@H](CCCCN)C(=O)N[C@H](CCCNC(=N)N)C(=O)NCC(=O)N[C@H](CS)C(=O)N[C@H](CC(C)C)C(=O)N[C@H](CCCCN)C(=O)N[C@@H](C(=O)N[C@@H](C(=O)N[C@H](CCC(=O)O)C(=O)N[C@H](CCC(=O)O)C(=O)N[C@H](CCSC)C(=O)N[C@H](Cc1c[nH]c2ccccc12)C(=O)N[C@H](CO)C(=O)O)C(C)C)[C@H](C)CC)[C@H](C)CC)[C@H](C)CC [(D)-RLN] (H-[dS][dW][dT][dS][dK][dE][dL][dL][dI][dE][dI][dI][dN][dD][dL][dQ][dK][dR]G[dC][dL][dK][dI][dV][dE][dE][dM][dW][dS]-OH; N-terminus and C-terminus assumed) | persists after 5 hours |  | ~90 | potency and efficacy comparable to (L)-RLN
